The values below come from ChEMBL document CHEMBL1201862, “PubChem BioAssay data set” (2004).

Calls of active or inactive are those of the source.

The target in assay [1] is T1, Cytochrome P450 1A2 (Homo sapiens, UniProt P05177).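 Note: PubChem cytochrome P450 panel assay, CYP1A2 panel member.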
T1 sequence (P05177 whole entry): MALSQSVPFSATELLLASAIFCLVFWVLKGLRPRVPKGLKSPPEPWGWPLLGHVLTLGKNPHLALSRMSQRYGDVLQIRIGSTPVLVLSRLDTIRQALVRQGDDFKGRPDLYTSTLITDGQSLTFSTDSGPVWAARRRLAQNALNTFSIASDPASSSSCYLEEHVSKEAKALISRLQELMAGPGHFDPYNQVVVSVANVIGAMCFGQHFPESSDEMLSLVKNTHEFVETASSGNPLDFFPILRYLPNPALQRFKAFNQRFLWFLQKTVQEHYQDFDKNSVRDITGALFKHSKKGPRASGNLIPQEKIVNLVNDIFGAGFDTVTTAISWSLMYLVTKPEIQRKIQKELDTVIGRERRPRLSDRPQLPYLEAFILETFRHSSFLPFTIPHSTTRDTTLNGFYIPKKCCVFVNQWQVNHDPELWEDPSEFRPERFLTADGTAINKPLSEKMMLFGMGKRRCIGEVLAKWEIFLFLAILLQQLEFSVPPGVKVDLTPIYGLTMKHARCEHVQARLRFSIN

Assay [2] deals with Multidrug resistance protein CDR2 (Candida albicans (strain SC5314 / ATCC MYA-2876) (Yeast), UniProt P78595). Briefly: CaCDR2 efflux pump inhibitors in yeast, dose response, S. cerevisiae AD1-8u, singleplex, Cherry Pick1 hits (AID 588604). The assay is classed as functional.
For assay [3], the system named is INS1. Briefly: beta cell apoptosis inhibitors, cytokine rescue, dose response, luminescence, retest (AID 449756).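 Note: cell death triggered by IL-1 beta plus TNF-alpha plus IFN-gamma mixture; protective hits raise ATP signal compared with cytokine alone wells.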 It is filed as functional, cell-based. The following applies: Rattus norvegicus.
For assay [4], the target named is Intestinal-type alkaline phosphatase (Mus musculus, UniProt P24822). Kind of assay: PubChem AID 488785. It is filed as functional.
Assay [5] has as its target Serine/threonine-protein kinase PLK3 (Homo sapiens, UniProt Q9H4B4). The assay is classed as functional.
Assay [6] has as its target Activated CDC42 kinase 1 (Homo sapiens, UniProt Q07912). Briefly: Navigating the Kinome. Panel member name: ACK1. The assay is classed as functional.
Assay [7] addresses Vascular endothelial growth factor receptor 1 (Homo sapiens, UniProt P17948). The assay is classed as functional.
For assay [8], the target named is Non-receptor tyrosine-protein kinase TYK2 (Homo sapiens, UniProt P29597). The assay is classed as functional.
The target of assay [9] is Serine/threonine-protein kinase Nek2 (Homo sapiens, UniProt P51955). It is filed as functional.
Assay [10] has as its target Mitogen-activated protein kinase kinase kinase kinase 4 (Homo sapiens, UniProt O95819). It is filed as functional.
Assay [11] deals with Cyclin-dependent kinase 8 (Homo sapiens, UniProt P49336). Briefly: Navigating the Kinome. Panel member name: CDK8. It is filed as functional.
Assay [12] has as its target Serine/threonine-protein kinase Chk2 (Homo sapiens, UniProt O96017). It is filed as functional.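 Note: CHEK2 entry within a kinome-wide screening panel.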
Assay [13] addresses Lymphokine-activated killer T-cell-originated protein kinase (Homo sapiens, UniProt Q96KB5). The assay is classed as functional.
The target in assay [14] is Serine/threonine-protein kinase DCLK1 (Homo sapiens, UniProt O15075). The assay is classed as functional.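 Note: affinity for DCLK1 (listed as DCAMKL1) measured as one member of a kinome-wide kinase profiling panel.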
Assay [15] has as its target Insulin-like growth factor 1 receptor (Homo sapiens, UniProt P08069). Kind of assay: Navigating the Kinome. Panel member name: IGF1R. It is filed as functional.
The target of assay [16] is Epidermal growth factor receptor (Homo sapiens, UniProt P00533).
The target of assay [17] is Proto-oncogene tyrosine-protein kinase ROS (Homo sapiens, UniProt P08922). It is filed as functional.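 Note: ROS1 tested as one member of a kinome-wide kinase panel.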
In assay [18] the target is Rho-associated protein kinase 1 (Homo sapiens, UniProt Q13464). The assay is classed as functional.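 Note: measured within a broad kinome-wide panel profiling many kinases.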
Assay [19] addresses Cyclin-dependent kinase 5 (Homo sapiens, UniProt Q00535). The assay is classed as functional.
Assay [20] has as its target Fibroblast growth factor receptor 1 (Homo sapiens, UniProt P11362). The assay is classed as functional.
For assay [21], the target named is Dual specificity mitogen-activated protein kinase kinase 2 (Homo sapiens, UniProt P36507). Kind of assay: Navigating the Kinome. Panel member name: MAP2K2. It is filed as functional.
Assay [22] has as its target Mast/stem cell growth factor receptor Kit (Homo sapiens, UniProt P10721). The assay is classed as functional.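 Note: KIT entry within a kinase panel assay.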
In assay [23] the target is Activin receptor type-1 (Homo sapiens, UniProt Q04771). Briefly: Navigating the Kinome. Panel member name: ACVR1. It is filed as functional.
Assay [24] deals with Tyrosine-protein kinase BTK (Homo sapiens, UniProt Q06187). It is filed as functional.
Assay [25] deals with MAP kinase-activated protein kinase 5 (Homo sapiens, UniProt Q8IW41). The assay is classed as functional.
Assay [26] has as its target Macrophage colony-stimulating factor 1 receptor (Homo sapiens, UniProt P07333). The assay is classed as functional.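 Note: value comes from the Navigating the Kinome screening panel, CSF1R member.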
Assay [27] addresses Platelet-derived growth factor receptor alpha (Homo sapiens, UniProt P16234). Kind of assay: Navigating the Kinome. Panel member name: PDGFRA. It is filed as functional.
Assay [28] concerns the target Receptor tyrosine-protein kinase erbB-2 (Homo sapiens, UniProt P04626). Briefly: Navigating the Kinome. Panel member name: ERBB2. It is filed as functional.
Assay [29] has as its target Testis-specific serine/threonine-protein kinase 2 (Homo sapiens, UniProt Q96PF2). The assay is classed as functional.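 Note: part of the Navigating the Kinome panel, target entry STK22B.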
Assay [30] has as its target Platelet-derived growth factor receptor beta (Homo sapiens, UniProt P09619). The assay is classed as functional.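 Note: value comes from a kinome panel, with PDGFRB tested as one panel member.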
For assay [31], the target named is Misshapen-like kinase 1 (Homo sapiens, UniProt Q8N4C8). The assay is classed as functional.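 Note: kinome panel screen with MINK as the panel member.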
Assay [32] addresses Testis-specific serine/threonine-protein kinase 1 (Homo sapiens, UniProt Q9BXA7). It is filed as functional.
The target of assay [33] is Ribosomal protein S6 kinase alpha-5 (Homo sapiens, UniProt O75582). It is filed as functional.
Assay [34] deals with Bifunctional protein GlmU (Mycobacterium tuberculosis, UniProt P9WMN3). Briefly: Inhibitors of Mycobacterial Glucosamine-1-phosphate acetyl transferase (GlmU). Secondary screen. On the set-up: species or system Mycobacterium tuberculosis H37Rv.

Sequence of Rho-associated protein kinase 1 (Q13464 whole entry): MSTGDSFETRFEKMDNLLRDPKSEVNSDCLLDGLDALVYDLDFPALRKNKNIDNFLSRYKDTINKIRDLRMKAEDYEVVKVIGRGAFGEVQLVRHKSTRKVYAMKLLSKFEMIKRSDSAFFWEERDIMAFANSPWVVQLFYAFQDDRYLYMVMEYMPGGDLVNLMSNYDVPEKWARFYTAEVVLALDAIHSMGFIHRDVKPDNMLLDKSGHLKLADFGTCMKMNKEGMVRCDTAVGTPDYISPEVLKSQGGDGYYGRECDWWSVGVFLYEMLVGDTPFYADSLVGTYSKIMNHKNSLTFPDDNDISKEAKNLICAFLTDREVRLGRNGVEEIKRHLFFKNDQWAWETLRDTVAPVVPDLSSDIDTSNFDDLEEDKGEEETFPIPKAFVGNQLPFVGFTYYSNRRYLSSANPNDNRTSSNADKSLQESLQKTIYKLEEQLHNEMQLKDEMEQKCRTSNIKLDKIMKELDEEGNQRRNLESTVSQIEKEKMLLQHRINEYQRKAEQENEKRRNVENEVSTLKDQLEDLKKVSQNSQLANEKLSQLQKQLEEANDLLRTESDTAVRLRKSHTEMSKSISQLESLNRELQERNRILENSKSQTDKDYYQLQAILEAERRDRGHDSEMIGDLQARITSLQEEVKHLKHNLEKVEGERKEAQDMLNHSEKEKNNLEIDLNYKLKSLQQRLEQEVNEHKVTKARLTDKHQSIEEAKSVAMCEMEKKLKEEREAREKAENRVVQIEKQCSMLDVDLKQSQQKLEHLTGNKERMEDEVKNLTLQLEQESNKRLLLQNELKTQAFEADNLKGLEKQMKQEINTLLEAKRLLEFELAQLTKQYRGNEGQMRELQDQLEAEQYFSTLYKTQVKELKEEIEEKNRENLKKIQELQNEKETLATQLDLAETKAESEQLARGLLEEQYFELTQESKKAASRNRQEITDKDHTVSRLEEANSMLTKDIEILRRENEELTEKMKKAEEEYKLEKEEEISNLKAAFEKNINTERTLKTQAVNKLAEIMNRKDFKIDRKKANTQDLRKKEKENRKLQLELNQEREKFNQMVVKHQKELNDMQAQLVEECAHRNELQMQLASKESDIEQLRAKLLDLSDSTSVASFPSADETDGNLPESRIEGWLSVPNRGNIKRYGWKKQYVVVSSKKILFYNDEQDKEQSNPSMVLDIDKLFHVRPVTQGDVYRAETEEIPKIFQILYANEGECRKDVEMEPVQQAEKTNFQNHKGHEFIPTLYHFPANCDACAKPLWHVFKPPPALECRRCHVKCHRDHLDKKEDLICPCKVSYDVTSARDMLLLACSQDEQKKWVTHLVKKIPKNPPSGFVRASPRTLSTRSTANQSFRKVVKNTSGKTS
Sequence of Dual specificity mitogen-activated protein kinase kinase 2 (P36507 whole entry): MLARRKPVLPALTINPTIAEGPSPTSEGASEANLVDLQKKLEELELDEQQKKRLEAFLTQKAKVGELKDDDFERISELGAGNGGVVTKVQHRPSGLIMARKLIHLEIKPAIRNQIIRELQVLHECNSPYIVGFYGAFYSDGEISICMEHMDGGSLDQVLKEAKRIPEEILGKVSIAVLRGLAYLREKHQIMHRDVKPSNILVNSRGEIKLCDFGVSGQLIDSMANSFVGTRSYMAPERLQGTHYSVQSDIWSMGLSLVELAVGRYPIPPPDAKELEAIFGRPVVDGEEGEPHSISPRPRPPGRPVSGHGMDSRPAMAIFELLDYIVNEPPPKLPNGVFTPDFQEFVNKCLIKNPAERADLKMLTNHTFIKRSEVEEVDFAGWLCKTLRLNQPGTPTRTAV
Sequence of Cyclin-dependent kinase 8 (P49336 whole entry): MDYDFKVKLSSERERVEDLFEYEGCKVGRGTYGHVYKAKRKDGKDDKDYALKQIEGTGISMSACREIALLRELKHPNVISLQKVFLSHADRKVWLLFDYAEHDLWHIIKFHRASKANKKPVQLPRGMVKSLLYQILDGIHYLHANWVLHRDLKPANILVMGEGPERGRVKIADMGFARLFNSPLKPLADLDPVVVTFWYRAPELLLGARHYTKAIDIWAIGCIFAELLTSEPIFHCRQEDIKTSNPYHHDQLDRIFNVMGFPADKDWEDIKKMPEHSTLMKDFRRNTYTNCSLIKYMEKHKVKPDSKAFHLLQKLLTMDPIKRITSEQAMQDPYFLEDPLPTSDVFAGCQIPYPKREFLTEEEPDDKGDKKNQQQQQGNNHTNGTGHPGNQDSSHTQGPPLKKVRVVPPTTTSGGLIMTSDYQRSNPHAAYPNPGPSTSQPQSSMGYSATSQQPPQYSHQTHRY
Sequence of Insulin-like growth factor 1 receptor (P08069 31-736 limits assumed): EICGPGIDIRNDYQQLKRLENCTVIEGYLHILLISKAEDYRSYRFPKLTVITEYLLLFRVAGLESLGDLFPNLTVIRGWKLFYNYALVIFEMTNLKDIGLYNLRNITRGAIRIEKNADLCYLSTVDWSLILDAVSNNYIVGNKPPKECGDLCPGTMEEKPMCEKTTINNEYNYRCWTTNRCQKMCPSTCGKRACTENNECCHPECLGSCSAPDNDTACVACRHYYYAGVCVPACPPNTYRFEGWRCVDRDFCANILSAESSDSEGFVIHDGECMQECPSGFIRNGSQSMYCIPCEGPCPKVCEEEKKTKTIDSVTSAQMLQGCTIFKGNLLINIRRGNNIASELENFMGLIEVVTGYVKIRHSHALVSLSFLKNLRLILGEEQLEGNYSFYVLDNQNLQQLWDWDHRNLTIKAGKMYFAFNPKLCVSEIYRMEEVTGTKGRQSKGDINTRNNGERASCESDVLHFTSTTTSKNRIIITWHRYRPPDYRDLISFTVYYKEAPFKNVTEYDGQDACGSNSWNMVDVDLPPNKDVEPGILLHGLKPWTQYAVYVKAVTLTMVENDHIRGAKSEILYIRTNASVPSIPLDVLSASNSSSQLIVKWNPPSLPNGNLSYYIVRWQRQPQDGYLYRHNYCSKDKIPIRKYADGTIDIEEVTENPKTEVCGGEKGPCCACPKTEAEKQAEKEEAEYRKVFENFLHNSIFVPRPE
Sequence of Insulin-like growth factor 1 receptor (P08069 741-1367 limits assumed): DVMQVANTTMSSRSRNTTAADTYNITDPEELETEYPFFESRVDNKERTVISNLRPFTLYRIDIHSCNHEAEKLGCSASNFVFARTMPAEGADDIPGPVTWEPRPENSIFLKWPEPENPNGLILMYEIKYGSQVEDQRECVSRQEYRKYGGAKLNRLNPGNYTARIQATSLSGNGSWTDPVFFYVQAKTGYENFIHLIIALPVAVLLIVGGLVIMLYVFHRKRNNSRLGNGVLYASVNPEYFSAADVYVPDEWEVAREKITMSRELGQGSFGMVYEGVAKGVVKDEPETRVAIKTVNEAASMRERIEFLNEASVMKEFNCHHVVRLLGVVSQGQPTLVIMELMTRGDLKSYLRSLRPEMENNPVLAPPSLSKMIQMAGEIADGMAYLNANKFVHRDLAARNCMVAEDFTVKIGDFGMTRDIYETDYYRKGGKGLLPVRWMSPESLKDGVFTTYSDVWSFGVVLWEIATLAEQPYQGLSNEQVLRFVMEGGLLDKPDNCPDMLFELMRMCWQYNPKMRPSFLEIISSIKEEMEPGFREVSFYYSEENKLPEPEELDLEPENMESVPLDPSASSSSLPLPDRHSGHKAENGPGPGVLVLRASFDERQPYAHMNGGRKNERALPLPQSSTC
Sequence of Multidrug resistance protein CDR2 (P78595 whole entry): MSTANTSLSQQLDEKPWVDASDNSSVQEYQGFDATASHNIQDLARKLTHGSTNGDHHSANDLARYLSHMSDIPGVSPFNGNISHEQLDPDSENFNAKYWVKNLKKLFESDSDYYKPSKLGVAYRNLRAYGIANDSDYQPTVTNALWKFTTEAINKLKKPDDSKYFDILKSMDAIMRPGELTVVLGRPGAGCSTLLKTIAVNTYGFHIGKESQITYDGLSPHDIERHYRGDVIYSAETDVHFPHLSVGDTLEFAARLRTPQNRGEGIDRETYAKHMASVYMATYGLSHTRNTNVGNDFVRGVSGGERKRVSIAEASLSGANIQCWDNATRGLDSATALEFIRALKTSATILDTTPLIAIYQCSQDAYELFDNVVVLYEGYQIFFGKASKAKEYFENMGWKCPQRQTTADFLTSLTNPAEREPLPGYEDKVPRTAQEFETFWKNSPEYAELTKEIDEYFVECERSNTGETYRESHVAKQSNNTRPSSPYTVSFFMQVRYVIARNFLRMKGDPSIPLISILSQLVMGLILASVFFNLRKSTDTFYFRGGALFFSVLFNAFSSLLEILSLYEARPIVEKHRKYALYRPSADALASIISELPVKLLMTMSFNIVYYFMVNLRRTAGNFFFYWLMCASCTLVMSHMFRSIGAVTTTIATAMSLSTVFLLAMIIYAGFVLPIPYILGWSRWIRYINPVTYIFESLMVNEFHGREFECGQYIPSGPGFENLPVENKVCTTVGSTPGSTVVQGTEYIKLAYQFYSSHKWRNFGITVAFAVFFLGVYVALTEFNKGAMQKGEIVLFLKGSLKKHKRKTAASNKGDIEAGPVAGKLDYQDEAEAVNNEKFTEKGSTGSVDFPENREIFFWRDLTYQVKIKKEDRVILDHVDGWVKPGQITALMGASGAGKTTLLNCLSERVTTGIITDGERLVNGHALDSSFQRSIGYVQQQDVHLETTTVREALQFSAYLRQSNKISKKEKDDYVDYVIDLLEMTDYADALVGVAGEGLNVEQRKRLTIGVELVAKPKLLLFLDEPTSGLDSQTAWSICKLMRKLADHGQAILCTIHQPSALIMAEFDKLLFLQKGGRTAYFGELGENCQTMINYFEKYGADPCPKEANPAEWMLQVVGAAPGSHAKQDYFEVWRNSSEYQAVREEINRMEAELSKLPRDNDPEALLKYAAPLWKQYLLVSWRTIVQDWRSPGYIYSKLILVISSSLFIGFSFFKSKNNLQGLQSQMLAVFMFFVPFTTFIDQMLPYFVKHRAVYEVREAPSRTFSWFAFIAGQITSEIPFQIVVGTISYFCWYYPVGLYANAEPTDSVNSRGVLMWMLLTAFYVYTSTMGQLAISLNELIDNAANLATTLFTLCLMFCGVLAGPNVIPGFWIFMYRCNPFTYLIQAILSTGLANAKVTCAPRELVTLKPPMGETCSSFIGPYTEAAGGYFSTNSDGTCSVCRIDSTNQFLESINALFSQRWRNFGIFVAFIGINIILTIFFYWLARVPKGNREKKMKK

The AC50 is the concentration giving half of the maximal activity seen. Regarding `CN(C)S(=O)(=O)Oc1cccc(C(=O)Nc2ccc(Cl)c(Cl)c2)c1`, the AC50 in [1] is 2 µM (inconclusive).

One may read the EC50 as the concentration at which the effect is half-maximal. For the molecule `Cc1ccc2[nH]c(/C(C#N)=C/c3ccc(O)c(O)c3)nc2c1`, in assay [2], the EC50 is 2.17 µM (active).

`COC(=O)C1CN(C#N)N(c2ccc(Cl)cc2)C12c1ccccc1-c1ccccc12` (centres undefined): the AC50 in assay [3] is 2.5 µM (active).

By IC50 is commonly meant the point on the concentration scale where inhibition reaches its midpoint. As to `O=C(NN1C(=O)CSC1=S)C(=O)NN1C(=O)CSC1=S`, in [4], the IC50 was 7.75 µM (active).

By Ki is commonly meant a dissociation constant, usually derived from enzyme kinetics or from competition with a known ligand. Regarding `Nc1noc2cccc(-c3cccc(O)c3)c12`, the Ki in [5] was > 7.94 µM (inactive); in assay [6], 25.1 µM (active); in assay [7] it was > 10 µM (inactive); in [8] it was > 2 µM (inactive); in assay [9], > 10 µM (inactive); in assay [10] it was 20 µM (active). For the same molecule, the Ki is 0.501 µM (active) in assay [11]; > 1.58 µM (inactive) in assay [12]; > 10 µM (inactive) in assay [13]; > 10 µM (inactive) in assay [14]; > 2 µM (inactive) in assay [15]; > 2 µM (inactive) in assay [16]. The Ki was > 2 µM (inactive) in assay [17]; 1 µM (active) in [18]; > 6.31 µM (inactive) in assay [19]; 15.8 µM (active) in assay [20]; 7.94 µM (active) in assay [21]; > 1.26 µM (inactive) in assay [22]. Moreover, the Ki in assay [23] is 0.631 µM (active); in assay [24], > 39.8 µM (inactive); in assay [25] it was > 1.58 µM (inactive); in [26] it was > 5.01 µM (inactive); in assay [27] it was 6.31 µM (active); in assay [28], > 1.58 µM (inactive). Moreover, the Ki in assay [29] is > 1.58 µM (inactive); in [30], 7.94 µM (active); in [31] it was 3.16 µM (active); in [32] it was > 1.58 µM (inactive); in assay [33] it was 0.631 µM (active).

Consider `O=C1NC(=S)S/C1=C\C=C\c1ccc([N+](=O)[O-])o1`, for which, in assay [34], the IC50 was 19.1 µM (active).
